Starred links: 1 amine or outer side, 2 acyl side, 3 side chain; linkers in the order of their positions; H or OH if unused. Positions of bridges follow the written chain, without caps; N, C: chain ends. Non-standard residues stand in square brackets, D forms with d. Residues, ends and D or L forms follow the SMILES beside them. Groups on a side chain read outwards from the residue. No end group written: not given here. *: point of attachment. Meglumine = CN(C[C@H](O)[C@@H](O)[C@H](O)[C@H](O)CO)*; Trp(7-aza) = N[C@@H](Cc1c[nH]c2ncccc12)C(=O)O; Piperazinyl(4-CH2COOH) = O=C(O)CN1CCN(*)CC1; 1Nal = N[C@@H](Cc1cccc2ccccc12)C(=O)O; Gly(NCH2CH2Ph) = O=C(O)CNCCc1ccccc1; 4Pal = N[C@@H](Cc1ccncc1)C(=O)O; CO = O=C([*:1])[*:2]

For one test, the target named is T1, recombinant human TGF-β1 (Homo sapiens, UniProt P01137).
T1 construct: purchased R&D systems
The test can be described thus: SBE reporter assay in SBE reporter-HEK293 cells, TGF-β1 stimulation. In kind it is cell-based. The note with it: TGF-β1 0.13 nM, 18 hours; for inhibition at 62 pM: peptide 0.062 nM; for inhibition at 0.000185 µM: peptide 0.185 nM; for inhibition at 0.00056 µM: peptide 0.56 nM; for inhibition at 0.0017 µM: peptide 1.7 nM; for inhibition at 0.005 µM: peptide 5.0 nM; for inhibition at 0.015 µM: peptide 15.0 nM; for inhibition at 75 pM: peptide 0.075 nM; for inhibition at 0.00075 µM: peptide 0.75 nM; for inhibition at 0.0075 µM: peptide 7.5 nM; for inhibition at 0.075 µM: peptide 75.0 nM. From the text:
The inhibitory activity of the peptide can be calculated without limitation while the maximum signal induced by TGF-β is set to 0% inhibition and no stimulation is set to 100% inhibition. When the peptide is used at an appropriate concentration, for example, at the optimal concentration, the inhibitory activity is not limited but the inhibition is 5% or more, 10% or more, 20% or more, 30% or more, 40% or more, 50% or more, 60% or more, 70% or more, 80% or more, or 90% or more.
In this Example, the TGF-β1 inhibitory activity of the peptide of the present invention consisting of the amino acid sequence set forth in SEQ ID NOs: 2-33 synthesized in Examples 1 to 5 and 7 was evaluated by an SBE reporter assay using the SBE reporter-HEK293 cell system (BP Bioscience) as follows.
SBE reporter-HEK293 cells were cultured in E-MEM (Wako) containing 10% FBS (Sigma). The cells were detached using Accutase (Innovative Cell Technologies), suspended in E-MEM containing 0.5% FBS, seeded onto a 96-well plate(s) at a concentration of 45,000 cells per well, and cultured overnight. The next day, the peptide was added and allowed to stand for 20 min, and recombinant human TGF-β1 (R&D systems) or recombinant human TGF-β2 (R&D systems) was then added at 0.13 nM and cultured for 18 hours.
Thereafter, luciferase assay ONE-Glo reagent was added to each well and the plate was shaken for 5 min. A SpectraMax Paradigm multimode microplate reader (Molecular Devices) was then used for signal detection. The obtained signals were analyzed by GraphPad Prism. The inhibitory activity of the peptide was calculated while the maximum signal induced by TGF-β was set to 0% inhibition and no stimulation was set to 100% inhibition.

The target in test [1] is recombinant human TGF-β1 (R&D systems) (human, UniProt P01137 279-390). The test can be described thus: cell-based or functional assay.
Chain of recombinant human TGF-β1 (R&D systems) (P01137 279-390 limits assumed): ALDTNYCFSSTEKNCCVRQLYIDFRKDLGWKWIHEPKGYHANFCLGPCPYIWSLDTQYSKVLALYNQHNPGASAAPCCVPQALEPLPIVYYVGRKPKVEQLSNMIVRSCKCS

T1 sequence (P01137 279-390 limits assumed): as above

For `CC(C)[C@@H]1NC(=O)CN(CCc2ccccc2)C(=O)[C@H](CC(=O)O)NC(=O)[C@H](CC(=O)O)NC(=O)[C@H](Cc2ccncc2)NC(=O)[C@H](C(C)C)NC(=O)[C@H](CC(N)=O)NC(=O)[C@H](C(C)C)NC(=O)[C@H](C(C)C)NC(=O)[C@H](Cc2cccc3ccccc23)NC(=O)[C@H](Cc2ccccc2)NC(=O)CSC[C@@H](C(=O)NCC(N)=O)NC(=O)[C@H](CCC(=O)O)NC(=O)[C@H](Cc2c[nH]cn2)NC(=O)[C@H](Cc2ccc(O)cc2)NC(=O)[C@H](Cc2cccc3ccccc23)NC1=O` [TGFb1_027] ({CH2CO}-F[1Nal]VVNV[4Pal]DD[Gly(NCH2CH2Ph)]V[1Nal]YHECG-NH2; thioether N-16), at recombinant human TGF-β1, the inhibition at 62 pM stood at 2.53%, the inhibition at 0.000185 µM is 9.14%, the inhibition at 0.00056 µM was determined as 28.4% and the inhibition at 0.0017 µM was determined as 59.4%. On recombinant human TGF-β1, the inhibition at 0.005 µM stood at 84.9% and the inhibition at 0.015 µM stood at 95.5%.
In the case of `CC(C)[C@@H]1NC(=O)CN(CCc2ccccc2)C(=O)[C@H](CCCCNC(=O)N2CCN(CC(=O)O)CC2)NC(=O)[C@H](CC(=O)O)NC(=O)[C@H](Cc2ccncc2)NC(=O)[C@H](C(C)C)NC(=O)[C@H](CC(N)=O)NC(=O)[C@H](C(C)C)NC(=O)[C@H](C(C)C)NC(=O)[C@H](Cc2c[nH]c3ncccc23)NC(=O)[C@H](Cc2ccccc2)NC(=O)CSC[C@@H](C(=O)NCC(N)=O)NC(=O)[C@H](C(C)C)NC(=O)[C@H](Cc2c[nH]cn2)NC(=O)[C@H](Cc2ccc(O)cc2)NC(=O)[C@H](Cc2cccc3ccccc23)NC1=O` [TGFb1_017] ({CH2CO}-F[Trp(7-aza)]VVNV[4Pal]DK([CO-Piperazinyl(4-CH2COOH)])[Gly(NCH2CH2Ph)]V[1Nal]YHVCG-NH2; thioether N-16), at recombinant human TGF-β1, the inhibition at 75 pM stood at 21.7%, the inhibition at 0.00075 µM is 60.2%, the inhibition at 0.0075 µM is 97.2% and the inhibition at 0.075 µM was 100%.
As to `CC(C)[C@@H]1NC(=O)CN(CCc2ccccc2)C(=O)[C@H](CC(=O)O)NC(=O)[C@H](CC(=O)O)NC(=O)[C@H](Cc2ccncc2)NC(=O)[C@H](C(C)C)NC(=O)[C@H](CC(N)=O)NC(=O)[C@H](CCCCNC(=O)N2CCN(CC(=O)O)CC2)NC(=O)[C@H](C(C)C)NC(=O)[C@H](Cc2cccc3ccccc23)NC(=O)[C@H](Cc2ccccc2)NC(=O)CSC[C@@H](C(=O)NCC(N)=O)NC(=O)[C@H](C(C)C)NC(=O)[C@H](Cc2c[nH]cn2)NC(=O)[C@H](Cc2ccc(O)cc2)NC(=O)[C@H](Cc2cccc3ccccc23)NC1=O` [TGFb1_010] ({CH2CO}-F[1Nal]VK([CO-Piperazinyl(4-CH2COOH)])NV[4Pal]DD[Gly(NCH2CH2Ph)]V[1Nal]YHVCG-NH2; thioether N-16), on recombinant human TGF-β1, the inhibition at 75 pM was 2%, the inhibition at 0.00075 µM amounted to 63.8%, the inhibition at 0.0075 µM worked out at 97.9% and the inhibition at 0.075 µM worked out at 99.9%.
The like results for `CC(C)[C@@H]1NC(=O)CN(CCc2ccccc2)C(=O)[C@H](CC(=O)O)NC(=O)[C@H](CC(=O)O)NC(=O)[C@H](Cc2ccncc2)NC(=O)[C@H](C(C)C)NC(=O)[C@H](CC(N)=O)NC(=O)[C@H](CCCCNC(=O)N(C)C[C@H](O)[C@@H](O)[C@H](O)[C@H](O)CO)NC(=O)[C@H](C(C)C)NC(=O)[C@H](Cc2cccc3ccccc23)NC(=O)[C@H](Cc2ccccc2)NC(=O)CSC[C@@H](C(=O)NCC(N)=O)NC(=O)[C@H](C(C)C)NC(=O)[C@H](Cc2c[nH]cn2)NC(=O)[C@H](Cc2ccc(O)cc2)NC(=O)[C@H](Cc2cccc3ccccc23)NC1=O` [TGFb1_014] ({CH2CO}-F[1Nal]VK([CO-Meglumine])NV[4Pal]DD[Gly(NCH2CH2Ph)]V[1Nal]YHVCG-NH2; thioether N-16) were, in that order, 0%, 64.8%, 97.2% and 98.8%.
`CC(C)[C@@H]1NC(=O)CN(CCc2ccccc2)C(=O)[C@H](CCC(=O)O)NC(=O)[C@H](CC(=O)O)NC(=O)[C@H](Cc2ccncc2)NC(=O)[C@H](C(C)C)NC(=O)[C@H](CC(N)=O)NC(=O)[C@H](CCCCNC(=O)N(C)C[C@H](O)[C@@H](O)[C@H](O)[C@H](O)CO)NC(=O)[C@H](C(C)C)NC(=O)[C@H](Cc2cccc3ccccc23)NC(=O)[C@H](Cc2ccccc2)NC(=O)CSC[C@@H](C(=O)NCC(N)=O)NC(=O)[C@H](CCC(=O)O)NC(=O)[C@H](Cc2c[nH]cn2)NC(=O)[C@H](Cc2ccc(O)cc2)NC(=O)[C@H](Cc2cccc3ccccc23)NC1=O` [TGFb1_029] ({CH2CO}-F[1Nal]VK([CO-Meglumine])NV[4Pal]DE[Gly(NCH2CH2Ph)]V[1Nal]YHECG-NH2; thioether N-16): at recombinant human TGF-β1, the inhibition at 62 pM stood at 12%, the inhibition at 0.000185 µM turned out to be 16.9%, the inhibition at 0.00056 µM came to 32.4% and the inhibition at 0.0017 µM was found to be 63.7%. For the same molecule, at recombinant human TGF-β1, the inhibition at 0.005 µM was found to be 85.8% and the inhibition at 0.015 µM came out at 96.8%.
`CC(C)[C@@H]1NC(=O)CN(CCc2ccccc2)C(=O)[C@H](CCC(=O)O)NC(=O)[C@H](CC(=O)O)NC(=O)[C@H](Cc2ccncc2)NC(=O)[C@H](C(C)C)NC(=O)[C@H](CC(N)=O)NC(=O)[C@H](C(C)C)NC(=O)[C@H](C(C)C)NC(=O)[C@H](Cc2cccc3ccccc23)NC(=O)[C@H](Cc2ccccc2)NC(=O)CSC[C@@H](C(=O)NCC(N)=O)NC(=O)[C@H](CCCCNC(=O)N2CCN(CC(=O)O)CC2)NC(=O)[C@H](Cc2c[nH]cn2)NC(=O)[C@H](Cc2ccc(O)cc2)NC(=O)[C@H](Cc2cccc3ccccc23)NC1=O` [TGFb1_021] ({CH2CO}-F[1Nal]VVNV[4Pal]DE[Gly(NCH2CH2Ph)]V[1Nal]YHK([CO-Piperazinyl(4-CH2COOH)])CG-NH2; thioether N-16): on recombinant human TGF-β1, the inhibition at 62 pM came out at 10.2%, the inhibition at 0.000185 µM was determined as 26.9%, the inhibition at 0.00056 µM was 58.9% and the inhibition at 0.0017 µM worked out at 87.8%. For the same molecule, at recombinant human TGF-β1, the inhibition at 0.005 µM came out at 97.1% and the inhibition at 0.015 µM is 98.8%.
Regarding `CC(C)[C@@H]1NC(=O)CN(CCc2ccccc2)C(=O)[C@H](CC(=O)O)NC(=O)[C@H](CC(=O)O)NC(=O)[C@H](Cc2ccncc2)NC(=O)[C@H](C(C)C)NC(=O)[C@H](CC(N)=O)NC(=O)[C@H](C(C)C)NC(=O)[C@H](C(C)C)NC(=O)[C@H](Cc2cccc3ccccc23)NC(=O)[C@H](Cc2ccccc2)NC(=O)CSC[C@@H](C(=O)NCC(N)=O)NC(=O)[C@H](CCCCNC(=O)N(C)C[C@H](O)[C@@H](O)[C@H](O)[C@H](O)CO)NC(=O)[C@H](Cc2c[nH]cn2)NC(=O)[C@H](Cc2ccc(O)cc2)NC(=O)[C@H](Cc2cccc3ccccc23)NC1=O` [TGFb1_016] ({CH2CO}-F[1Nal]VVNV[4Pal]DD[Gly(NCH2CH2Ph)]V[1Nal]YHK([CO-Meglumine])CG-NH2; thioether N-16), on recombinant human TGF-β1, the inhibition at 75 pM came out at 6.1%, the inhibition at 0.00075 µM worked out at 61%, the inhibition at 0.0075 µM was found to be 97.6% and the inhibition at 0.075 µM was determined as 100%.
On the same counts, the results for `CC(C)[C@@H]1NC(=O)CN(CCc2ccccc2)C(=O)[C@H](CCCCNC(=O)N(C)C[C@H](O)[C@@H](O)[C@H](O)[C@H](O)CO)NC(=O)[C@H](CC(=O)O)NC(=O)[C@H](Cc2ccncc2)NC(=O)[C@H](C(C)C)NC(=O)[C@H](CC(N)=O)NC(=O)[C@H](C(C)C)NC(=O)[C@H](C(C)C)NC(=O)[C@H](Cc2cccc3ccccc23)NC(=O)[C@H](Cc2ccccc2)NC(=O)CSC[C@@H](C(=O)NCC(N)=O)NC(=O)[C@H](C(C)C)NC(=O)[C@H](Cc2c[nH]cn2)NC(=O)[C@H](Cc2ccc(O)cc2)NC(=O)[C@H](Cc2cccc3ccccc23)NC1=O` [TGFb1_015] ({CH2CO}-F[1Nal]VVNV[4Pal]DK([CO-Meglumine])[Gly(NCH2CH2Ph)]V[1Nal]YHVCG-NH2; thioether N-16) are 0%, 76.9%, 98.7% and 98.4%.

B1: TGFb1_006 (peptide)
peptide: {CH2CO}-F[1Nal]VVNV[4Pal]DD[Gly(NCH2CH2Ph)]V[1Nal]YHVCG
modifications: thioether N-16; not fully specified (C-terminus)
notes: cyclic peptide; C-terminal G is a linker
Take B1: in test [1], the “SBE reporter % inhibition, peptide 0.075 nM” value worked out at 2.8%; the “SBE reporter % inhibition, peptide 0.75 nM” value worked out at 69.3%; the “SBE reporter % inhibition, peptide 7.5 nM” value came out at 97.1%; the “SBE reporter % inhibition, peptide 75.0 nM” value turned out to be 99.7%.

By inhibition is commonly meant the percentage by which the read-out fell short of the control.

Values taken from patent US20250034212A1, “PEPTIDE” (PEPTIDREAM INC., priority 2021, published 2025).
